Assay type in all cases: cell-based, human
The subject of experiment [1] is NMDA-type glutamate receptors of differentiated hES-NPCs. Nature of the experiment: Whole-cell patch-clamp recording of ligand-gated currents. The following applies: for effect on glutamate-evoked currents: voltage clamp, holding potential −60 mV, after 2 to 2.5 weeks in culture, 100 μM D-APV. (In general: The patch-clamp technique gives a direct electrical read-out from membranes.)

In another experiment the test system is differentiated hES-NPCs. Nature of the experiment: Whole-cell patch-clamp recording of GABA-evoked currents. The settings on record: 2.5 weeks in culture.
The subject of the next experiment is hESCs. Nature of the experiment: Spheroid bodies formation in suspension medium. The following applies: addition to the suspension medium (2 mM). The method, then:
Spheroid bodies formation: the small clusters (10-100 cells) of hESCs were grown in polypropylene dishes (Ted Pella) in Suspension Medium (1:1 ratio of DMEM/F12:neurobasal medium with N2+B27 supplements, 20 ng/ml insulin 20 ng/ml bFGF, 20 ng/ml EGF and 2 mM N-acetyl cysteine (NAC)). The spheres were grown for 4-6 days, with a change in medium every alternate day.

Experiment [2] has as its system glutamate receptors of differentiated hES-NPCs cultures. Nature of the experiment: Calcium imaging. The following applies: 4-5 week old cultures; NMDA followed by glutamate, 37° C. The method, then: Calcium Imaging. Measurement of intracellular free Ca2+ ([Ca2+]i) in differentiated HNSC cultures was performed using Fura-2-AM or Fluo-3-AM as described earlier (Tenneti et al., J Neurochem 71: 946-59, 1998) with the minor modification. Briefly, ES derived hNPC cells were washed twice with recording medium containing 150 mM NaCl, 3 mM KCl, 2 mM CaCl2, 5 mM glucose, 10 μM glycine, and 10 mM HEPES (pH 7.4) and incubated generally at 37° C. in recording medium containing 30 nM Pluronic F-127 and 5 μM Fluo-3 AM for 30 minor 10 μMFura-2-AM for 60 min (acetoxymethyl esters; Molecular Probes). Cultures were then washed three times with recording medium, followed by settlement at 37° C. for at least 30 min. Cells were invariably used within 1 hr after these procedures for observation. During the experiments, cells were kept in a perfusion chamber on the microscope stage at room temperature (Fluo-3) or 37° C. (Fura-2 experiments). Imaging was done using a Sutter DG-4 fast wavelength switcher coupled to a Zeiss Axiovert microscope with a 20×, 0.5 NA, objective. […] Changes in fluorescence intensity were calculated by dividing the measured fluorescence intensity (F; ratio of 340/380 nm for Fura-2) by the measured average baseline fluorescence intensity (F/F0) Excitation was achieved using standard FITC or Fura-2 filter sets (Chroma technologies).

In experiment [3] the test system is Voltage-gated Na+ currents of differentiated hES-NPCs.

This note sets out measurements from patent US8178349B2, “Homogeneous neural precursor cells” (Burnham Institute For Medical Research, priority 2005, dated 2012).

Take `N[C@H](CCCP(=O)(O)O)C(=O)O` [D-APV, D-(−)-2 amino-5-phosphonovaleric acid]: the figures for the “effect on glutamate-evoked currents” value in experiment [1] and in experiment [1] (listed as APV) were “partially blocked” and “partially inhibited”, respectively.

For the compound `NCCCC(=O)O` [GABA, γ-aminobutyric acid], in the experiment on differentiated hES-NPCs, the “cells with agonist-evoked currents (cells of cells recorded)” value is 4 of 29.

`CC(=O)N[C@@H](CS)C(=O)O` [NAC, N-acetyl cysteine]: the “morphology of spheroid bodies” value with hESCs is recorded as “healthier morphology of spheroid bodies”.

For the compound `CN[C@H](CC(=O)O)C(=O)O` [NMDA, N-methyl-D-aspartate], the “[Ca2+] response of fura-2-loaded cells” value in experiment [2] was “Robust responses”.

In the case of `NC1=N[C@H](O)[C@H]2[C@H]3O[C@]4(O)O[C@@H]([C@@H](O)[C@@]2(N1)[C@@H]4O)[C@]3(O)CO` [TTX, tetrodotoxin], the “effect on fast Na+ currents” value in experiment [3] is on record as “reversibly blocked”.

Consider `N[C@@H](CCC(=O)O)C(=O)O` [glutamate], for which, in experiment [1] (after 2 weeks in culture), the “cells that manifest agonist-evoked currents” value is “approximately 30%”. Also, the “[Ca2+] response of fura-2-loaded cells” value in experiment [2] was “Robust responses”.
